Laboratory results from article PMC7904550, “Application of grouping and read-across for the evaluation of parabens of different chain lengths with a particular focus on endocrine properties” (Archives of Toxicology, 2021).
Like-named read-outs stand apart in the source and are kept apart here.

What was measured:
[1] = Octanol–water partition coefficient (Log Kow); type: physicochemical; conditions: 23 °C, OECD TG 107
Description: (§1) Generally, these parabens have very similar physico-chemical properties.

[2] = Grouping and read-across of NOAEL (ECHA RAAF Scenario 5; analogue approach); conditions: predicted by read-across from the respective paraben (analogue approach)
Description: The strength of evidence for the respective AEs was scored by the assessment options indicated in the RAAF ranging from Score 5 (acceptable with high confidence) to Score 1 (not acceptable) (ECHA [2017b]).

rats [3] = conditions: acute oral, rats, OECD 401; ref ECHA dissemination portal; cited from earlier work
rats [4] = conditions: rat, in vivo; cited from earlier work
rats [5] = conditions: rat, in vivo; cited from earlier work; remark: listed apart in the source
rats [6] = conditions: rat, in vivo; cited from earlier work; remark: listed apart in the source
bacteria = conditions: ref ECHA dissemination portal, cited from earlier work
[7] = cited from earlier work
[8] = tested on: human oestrogen receptor α; parameters: method as in Watanabe et al. 2013; conditions: ref Watanabe et al. 2013, cited from earlier work
[9] = tested on: human oestrogen receptor β; parameters: method as in Watanabe et al. 2013; conditions: among 12 linear n-alkyl parabens C1 to C12; ref Watanabe et al. 2013; cited from earlier work
[10] = Acid dissociation constant (pKa); type: physicochemical
Description: as §1

mammalian cells = conditions: OECD 476; ref ECHA dissemination portal; cited from earlier work
[11] = sodium salt, read-across from the respective paraben

SMILES: CCOC(=O)c1ccc([O-])cc1.[Na+] [Na-ethyl paraben, Sodium ethyl 4-HBA]
- Log Kow ([1]; pH 10.4): -0.14 at 23 °C, pH 10.4 (OECD TG 107)
- NOAEL for systemic repeated-dose toxicity and DART [2]: 1000 mg/kg bw/day
- LD50 (rats [3]): 3100 OECD 401; 1982) mg/kg bw
- Skin irritation/skin corrosion classification (rats [4]): Not irritating (OECD 404; 1981)
- Eye irritation/eye corrosion classification (rats [5]): Irritating (OECD 405; 1982)
- Skin sensitisation classification (rats [6]): Not sensitising (read-across from ethyl paraben)
- Mutagenicity in bacteria classification (bacteria; [11]): Not mutagenic (read-across from ethyl paraben)

SMILES: O=C(O)c1ccc(O)cc1 [p-hydroxybenzoic acid]
- Systemic toxicity and DART ([7]; ref ECHA registration dossier 15944): no systemic toxicity and no DART
- Endocrine activity ([7]; substance evaluation, REACH Article 48, ref ECHA 2014): does not exhibit any endocrine activity

SMILES: CCCCCCCOC(=O)c1ccc(O)cc1 [heptyl paraben]
- Concentration of highest potency in activating the receptor ([8]; among 12 linear n-alkyl parabens C1 to C12): 10^–7 M

SMILES: CCCCCOC(=O)c1ccc(O)cc1 [pentyl paraben]
- Concentration of highest potency in activating the receptor [9]: 10^–8 M

SMILES: C[C@]12CC[C@@H]3c4ccc(O)cc4CC[C@H]3[C@@H]1CC[C@@H]2O [17β-estradiol, reference compound]
- Concentration of receptor effects ([8]; receptor subtype not stated): 2.5 × 10^–12

SMILES: CCCOC(=O)c1ccc([O-])cc1.[Na+] [Na-propyl paraben, Sodium propyl 4-HBA]
- Log Kow ([1]; pH 10.8): 0.27 at 23 °C, pH 10.8 (OECD TG 107)
- NOAEL for systemic repeated-dose toxicity and DART [2]: 1000 mg/kg bw/day
- LD50 (rats [3]): > 5000 OECD 401; 1982) mg/kg bw
- Skin irritation/skin corrosion classification (rats [4]): Not irritating (OECD 404; 1982)
- Eye irritation/eye corrosion classification (rats [5]): Serious eye damage (OECD 405; 1983)
- Mutagenicity in bacteria classification (bacteria; [11]): Not mutagenic (read-across from propyl paraben)

SMILES: COC(=O)c1ccc([O-])cc1.[Na+] [Na-methyl paraben, Sodium methyl 4-HBA]
- pKa [10]: 8.4 (OECD TG 112)
- Mutagenicity in bacteria classification (bacteria; OECD 471): Not mutagenic [a] (OECD 471; 2012)
- Mutagenicity in mammalian cells classification (mammalian cells): Not mutagenic [a] (OECD 476; 2012)
